Experimental data taken from ChEMBL document CHEMBL1136816, “Synthesis and evaluation of ether and halogenated derivatives of mannopeptimycin glycopeptide antibiotics” (2003).
Converted amounts (≈) assume the structure as drawn. Each block holds one compound with its values, some of them ahead of it.

Assays:
Type in all cases: functional
Staphylococcus aureus [1] = experiment: In vitro minimum inhibitory concentration against Staphylococcus aureus; 1-8
Streptococcus sp. [2] = experiment: In vitro minimum inhibitory concentration against Streptococcus species; 0.5-2
Enterococcus sp. [3] = experiment: In vitro minimum inhibitory concentration against Enterococcus species; 4-32
Staphylococcus aureus [4] = experiment: In vitro minimum inhibitory concentration against Staphylococcus aureus; 16-32
Streptococcus sp. [5] = experiment: In vitro minimum inhibitory concentration against Streptococcus species; 1-16
Enterococcus sp. [6] = experiment: In vitro minimum inhibitory concentration against Enterococcus species; 16-32
Staphylococcus aureus [7] = experiment: In vitro minimum inhibitory concentration against Staphylococcus aureus
Enterococcus sp. [8] = experiment: In vitro minimum inhibitory concentration against Enterococcus species; 2-16
Streptococcus sp. [9] = experiment: In vitro minimum inhibitory concentration against Streptococcus species; </=0.12-0.5
Staphylococcus aureus [10] = experiment: In vitro minimum inhibitory concentration against Staphylococcus aureus; 1-4
Enterococcus sp. [11] = experiment: In vitro minimum inhibitory concentration against Enterococcus species; 2-4
Streptococcus sp. [12] = experiment: In vitro minimum inhibitory concentration against Streptococcus species; </=0.06-0.12
Staphylococcus aureus [13] = experiment: In vitro minimum inhibitory concentration against Staphylococcus aureus; 2-4
Staphylococcus aureus [14] = experiment: In vitro minimum inhibitory concentration against Staphylococcus aureus; 2-8
Staphylococcus aureus [15] = experiment: In vitro minimum inhibitory concentration against Staphylococcus aureus; 0.5-2
Streptococcus sp. [16] = experiment: In vitro minimum inhibitory concentration against Streptococcus species

SMILES: CCOc1cc(COCC2O[C@H](O[C@H]3[C@H](O)[C@H](O)[C@@H](Oc4ccc(C[C@H]5NC(=O)[C@H]([C@@H](C)c6ccccc6)NC(=O)CNC(=O)[C@H](CO)NC(=O)[C@@H]([C@@H](O)[C@@H]6CN=C(N)N6[C@H]6O[C@H](CO)[C@@H](O)[C@H](O)[C@@H]6O)NC(=O)[C@H]([C@@H](O)[C@@H]6CN=C(N)N6)NC5=O)cc4)O[C@@H]3CO)[C@@H](O)[C@@H](O)[C@@H]2O)ccc1OC (some centres undefined)
- MIC (Staphylococcus aureus [1]): 1 µg/mL (≈ 0.685 µM)
- MIC (Streptococcus sp. [2]): 0.5 µg/mL (≈ 0.343 µM)
- MIC (Enterococcus sp. [3]): 4 µg/mL (≈ 2.74 µM)

SMILES: C[C@@H](c1ccccc1)[C@@H]1NC(=O)CNC(=O)[C@H](CO)NC(=O)[C@@H]([C@@H](O)[C@@H]2CN=C(N)N2[C@H]2O[C@H](CO)[C@@H](O)[C@H](O)[C@@H]2O)NC(=O)[C@H]([C@@H](O)[C@@H]2CN=C(N)N2)NC(=O)[C@@H](Cc2ccc(O[C@H]3O[C@H](CO)[C@@H](O[C@H]4O[C@H](CO)[C@@H](OC/C=C/c5ccc(N(C)C)cc5)[C@H](O)[C@@H]4O)[C@H](O)[C@@H]3O)cc2)NC1=O
- MIC (Staphylococcus aureus [4]): 16 µg/mL (≈ 11 µM)
- MIC (Streptococcus sp. [5]): 1 µg/mL (≈ 0.688 µM)
- MIC (Enterococcus sp. [6]): 16 µg/mL (≈ 11 µM)

SMILES: COc1ccc(COC[C@H]2O[C@H](O[C@H]3[C@H](O)[C@H](O)[C@@H](Oc4ccc(C[C@H]5NC(=O)[C@H]([C@@H](C)c6ccccc6)NC(=O)CNC(=O)[C@H](CO)NC(=O)[C@@H]([C@@H](O)[C@@H]6CN=C(N)N6[C@H]6O[C@H](CO)[C@@H](O)[C@H](O)[C@@H]6O)NC(=O)[C@H]([C@@H](O)[C@@H]6CN=C(N)N6)NC5=O)cc4)O[C@@H]3CO)[C@@H](O)[C@@H](O)[C@@H]2O)c2ccccc12
- MIC (Enterococcus sp. [8]): 2 µg/mL (≈ 1.36 µM)
- MIC (Streptococcus sp. [9]): ≤ 0.12 µg/mL
- MIC (Staphylococcus aureus [10]): 1 µg/mL (≈ 0.682 µM)

SMILES: C[C@@H](c1ccccc1)[C@@H]1NC(=O)CNC(=O)[C@H](CO)NC(=O)[C@@H]([C@@H](O)[C@@H]2CN=C(N)N2[C@H]2O[C@H](CO)[C@@H](O)[C@H](O)[C@@H]2O)NC(=O)[C@H]([C@@H](O)[C@@H]2CN=C(N)N2)NC(=O)[C@@H](Cc2ccc(O[C@H]3O[C@H](CO)[C@@H](O[C@H]4O[C@H](CO)[C@@H](OCc5ccc(OCc6ccccc6)cc5)[C@H](O)[C@@H]4O)[C@H](O)[C@@H]3O)cc2)NC1=O
- MIC (Enterococcus sp. [11]): 2 µg/mL (≈ 1.34 µM)
- MIC (Staphylococcus aureus [15]): 0.5 µg/mL (≈ 0.335 µM)
- MIC (Streptococcus sp. [16]): ≤ 0.06 µg/mL

SMILES: C[C@@H](c1ccccc1)[C@@H]1NC(=O)CNC(=O)[C@H](CO)NC(=O)[C@@H]([C@@H](O)[C@@H]2CN=C(N)N2[C@H]2O[C@H](CO)[C@@H](O)[C@H](O)[C@@H]2O)NC(=O)[C@H]([C@@H](O)[C@@H]2CN=C(N)N2)NC(=O)[C@@H](Cc2ccc(O[C@H]3O[C@H](CO)[C@@H](O[C@H]4O[C@H](COCC=C(c5ccccc5)c5ccccc5)[C@@H](O)[C@H](O)[C@@H]4O)[C@H](O)[C@@H]3O)cc2)NC1=O
- MIC (Enterococcus sp. [11]): 2 µg/mL (≈ 1.34 µM)
- MIC (Staphylococcus aureus [7]): 2 µg/mL (≈ 1.34 µM)
- MIC (Streptococcus sp. [16]): ≤ 0.06 µg/mL

The next lines start with the values.

- MIC (Staphylococcus aureus [7]): 4 µg/mL (≈ 2.83 µM)
- MIC (Streptococcus sp. [2]): 0.5 µg/mL (≈ 0.353 µM)
- MIC (Enterococcus sp. [3]): 4 µg/mL (≈ 2.83 µM)
SMILES: COc1ccc(COC[C@H]2O[C@H](O[C@H]3[C@H](O)[C@H](O)[C@@H](Oc4ccc(C[C@H]5NC(=O)[C@H]([C@@H](C)c6ccccc6)NC(=O)CNC(=O)[C@H](CO)NC(=O)[C@@H]([C@@H](O)[C@@H]6CN=C(N)N6[C@H]6O[C@H](CO)[C@@H](O)[C@H](O)[C@@H]6O)NC(=O)[C@H]([C@@H](O)[C@@H]6CN=C(N)N6)NC5=O)cc4)O[C@@H]3CO)[C@@H](O)[C@@H](O)[C@@H]2O)cc1

- MIC (Enterococcus sp. [11]): 2 µg/mL (≈ 1.35 µM)
- MIC (Streptococcus sp. [12]): ≤ 0.06 µg/mL
- MIC (Staphylococcus aureus [13]): 2 µg/mL (≈ 1.35 µM)
SMILES: C[C@@H](c1ccccc1)[C@@H]1NC(=O)CNC(=O)[C@H](CO)NC(=O)[C@@H]([C@@H](O)[C@@H]2CN=C(N)N2[C@H]2O[C@H](CO)[C@@H](O)[C@H](O)[C@@H]2O)NC(=O)[C@H]([C@@H](O)[C@@H]2CN=C(N)N2)NC(=O)[C@@H](Cc2ccc(O[C@H]3O[C@H](CO)[C@@H](O[C@H]4O[C@H](COCc5ccc(Oc6ccccc6)cc5)[C@@H](O)[C@H](O)[C@@H]4O)[C@H](O)[C@@H]3O)cc2)NC1=O

- MIC (Streptococcus sp. [2]): 0.5 µg/mL (≈ 0.349 µM)
- MIC (Staphylococcus aureus [14]): 2 µg/mL (≈ 1.4 µM)
- MIC (Enterococcus sp. [3]): 4 µg/mL (≈ 2.79 µM)
SMILES: COc1ccc(COC[C@H]2O[C@H](O[C@H]3[C@H](O)[C@H](O)[C@@H](Oc4ccc(C[C@H]5NC(=O)[C@H]([C@@H](C)c6ccccc6)NC(=O)CNC(=O)[C@H](CO)NC(=O)[C@@H]([C@@H](O)[C@@H]6CN=C(N)N6[C@H]6O[C@H](CO)[C@@H](O)[C@H](O)[C@@H]6O)NC(=O)[C@H]([C@@H](O)[C@@H]6CN=C(N)N6)NC5=O)cc4)O[C@@H]3CO)[C@@H](O)[C@@H](O)[C@@H]2O)cc1F
